Source: patent US20020156112A1, “Endostatin-like angiogenesis inhibition” (priority 2000, published 2002)
Blank lines part the entries; values can stand above or below the compound they belong to.

Assays:
Assay type in all cases: binding
[1] = test system: RGD-endostatin interaction; assay: Colloid colour-change drug screen for endostatin mimics via RGD/endostatin interaction (Example 8); settings: 5 μL candidate drug at 2.9 mg/ml in DMSO; 4.75 ul of 0.1 mg/mL endostatin; room temperature, about 20 minutes
Protocol: In yet another aspect of the invention, a high throughput drug screening assay is described that identifies endostatin mimics is described. Histidine-tagged peptides containing two tandem GRGDS motifs are immobilized, from a phosphate buffered saline solution, onto gold nanoparticles (called colloids) that have been derivatized with NTA-Ni-SAMs that capture histidine-tagged species. Endostatin, which is a dimer in its functional form, is added to the colloidal solution. Dimeric endostatin presents two binding sites that recognize GRGDS motif peptides. The binding of dimeric endostatin to two peptides attached to two different colloids, draws the colloids close together and causes the color of the gold colloid solution to change from pink to blue. Recall that colloidal gold appears pink when the particles are dispersed in a homogeneous solution, but the solution turns blue when the particles are aggregated, see FIG. 5. Drug candidates are added to the colloid-immobilized GRGDS motif peptides and endostatin solution. When a drug candidate effectively interrupts the endostatin—GRGDS motif peptide interaction, the solution remains pink. Recall that the drug candidates are monomeric and therefore, even if they bind to the GRGDS peptides, they cannot bring two colloids together, which would cause the solution color to change from the inherent pink, to blue, see FIG. 7.
60 uM NTA colloids presenting a His-tagged peptide containing […] RGD motifs (GRGDSGRGDS) were prepared by incubating 1 mL of colloids with 200 ul 100 uM His-RGD for ten minutes, pelleting the colloids to remove excess unbound peptide, and resuspending the colloids in PBS. Negative control colloids were prepared by substituting a random His-tagged peptide in place of the RGD peptide. 30 μL RGD-colloids (or random peptide-colloids for negative controls) were added to each well of a 96-well plate along with 60 ul PBS per well. 5 μL of a candidate drug at 2.9 mg/ml in DMSO was added to each well of the plate. Candidate drugs including L-histidine, D-cycloserine, quisqualic acid and suramin were assessed. (See FIGS. 1-4). DMSO was added in place of a drug to each of the positive and negative controls. 4.75 ul of 0.1 mg/mL endostatin was added to each well. The plate was incubated at room temperature and observed for color change. After about 20 minutes, the positive controls changed color from pink to blue as the endostatin bound to the RGD peptide. […] Drugs identified in this manner that bound to the RGD motif and inhibited binding of endostatin may be endostatin mimics and could be used as synthetic replacements of endostatin.

[2] = Biotin-streptavidin interaction with gold colloids (Example 1)
Protocol: (§1) Gold colloids were prepared using a mixture of 10 μM biotin thiol, 10 μM NTA thiol, and 580 μM C11 thiol. Control colloids were prepared using 20 μM NTA thiol and 580 μM C11 thiol for a total thiol concentration of 600 μM. After deposition, the colloids were heat cycled in 400 μM EG3 thiol, and charged with nickel sulfate. A streptavidin stock solution (1 mg/mL) was prepared in 10 mM sodium phosphate buffer, 100 mM sodium chloride, pH 7.4 (buffer) To detect the biotin-streptavidin interaction, 60 μL buffer, 10 μL streptavidin, and 30 μL colloids, were mixed in a well of a 96-well plate. The plate was incubated at room temperature and observed for color change. At the three highest concentrations of streptavidin (0.1 mg/mL, 0.01 mg/mL, 0.001 mg/mL) the colloids presenting biotin turned blue (wells A1, A2, A3, FIG. 5). At lower concentrations of streptavidin, the wells containing biotin colloids remained pink (wells A4, A5, A6, A7). A similar experiment was performed using colloids presenting only the NTA group (wells B1-B7).
(§2) FIG. 5 is a digital photo of a colorimetric nanoparticle experiment in which gold colloids were derivatized with either biotin-SAMs (top row) or NTA-Ni-SAMs (bottom row). Streptavidin which has four binding sites for biotin, and thus will cross-link biotin-presenting colloids, was added free in solution. […]

[3] = Biotin-streptavidin interaction, control colloids (Example 1); settings: same streptavidin concentrations; wells B1-B7
Protocol: as §1, §2

[4] = biological target: T1, endostatin—GRGDS interaction (Homo sapiens, UniProt P39060); assay: Vitronectin competition in gold colloid colour-change assay (Example 6)
T1 construct: purchased Calbiochem 324746
T1 sequence (P39060 1572-1754 limits assumed): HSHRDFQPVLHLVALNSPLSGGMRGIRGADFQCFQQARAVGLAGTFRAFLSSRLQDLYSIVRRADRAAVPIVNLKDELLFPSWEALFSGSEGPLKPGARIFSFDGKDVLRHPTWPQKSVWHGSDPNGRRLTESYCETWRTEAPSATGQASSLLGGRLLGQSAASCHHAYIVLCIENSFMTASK
Protocol: 40 μM NTA gold colloids were prepared which presented the His-tagged RGD peptide (Sequence ID No.1, see Table 1). These colloids were mixed with endostatin (0.1 mg /mL) and turned blue, indicating binding of endostatin to the GRGDS peptide (A1, A2, FIG. 6). Control colloids presenting an irrelevant FLR-peptide (Sequence ID #2, see table 1) remained pink (wells A3, A4). At the highest concentration of vitronectin (0.1 mg /ml), the endostatin—GRGDS interaction is disrupted, and the well remains pink (B1). At lower concentrations of vitronectin, the endostatin—GRDS interaction is not affected and the wells turn blue (B2-B5).

Compound: N[C@@H](Cc1c[nH]cn1)C(=O)O [L-histidine]
disruption of RGD-endostatin interaction (well remains pink) [1]: disrupted the RGD-endostatin interaction

Compound: Cc1ccc(C(=O)Nc2ccc(S(=O)(=O)O)c3cc(S(=O)(=O)O)cc(S(=O)(=O)O)c23)cc1NC(=O)c1cccc(NC(=O)Nc2cccc(C(=O)Nc3cc(C(=O)Nc4ccc(S(=O)(=O)O)c5cc(S(=O)(=O)O)cc(S(=O)(=O)O)c45)ccc3C)c2)c1 [suramin]
disruption of RGD-endostatin interaction (well remains pink) [1]: disrupted the RGD-endostatin interaction

Compound: N[C@@H](Cn1oc(=O)[nH]c1=O)C(=O)O [quisqualic acid]
disruption of RGD-endostatin interaction (well remains pink) [1]: disrupted the RGD-endostatin interaction

Compound: streptavidin: Streptavidin which has four binding sites for biotin, added free in solution
colour of biotin colloids ([2]; lower concentrations of streptavidin, wells A4-A7): remained pink
colour of biotin colloids ([2]; three highest concentrations of streptavidin (0.1 mg/mL, 0.01 mg/mL, 0.001 mg/mL), wells A1-A3): turned blue
colour of NTA-only control colloids [3]: remained pink

Compound: N[C@@H]1CONC1=O [D-cycloserine]
disruption of RGD-endostatin interaction (well remains pink) [1]: disrupted the RGD-endostatin interaction

effect on endostatin—GRGDS interaction ([4]; highest concentration of vitronectin (0.1 mg/ml), well B1): disrupted
effect on endostatin—GRGDS interaction ([4]; lower concentrations of vitronectin, wells B2-B5): not affected
Compound: vitronectin: full-length vitronectin, a cell adhesion molecule containing the GRGDS motif
